Measured values as given in patent US20260098025A1, “DIMERIC COMPOUNDS AS INHIBITORS OF GLYCOGEN SYNTHASE 1 (GYS1) AND METHODS OF USE THEREOF” (Maze Therapeutics, Inc., priority 2022, published 2026).

Biological target: T1, recombinant hGYS1/GN1 protein (Homo sapiens, UniProt P13807)
T1 sequence (P13807 1-737): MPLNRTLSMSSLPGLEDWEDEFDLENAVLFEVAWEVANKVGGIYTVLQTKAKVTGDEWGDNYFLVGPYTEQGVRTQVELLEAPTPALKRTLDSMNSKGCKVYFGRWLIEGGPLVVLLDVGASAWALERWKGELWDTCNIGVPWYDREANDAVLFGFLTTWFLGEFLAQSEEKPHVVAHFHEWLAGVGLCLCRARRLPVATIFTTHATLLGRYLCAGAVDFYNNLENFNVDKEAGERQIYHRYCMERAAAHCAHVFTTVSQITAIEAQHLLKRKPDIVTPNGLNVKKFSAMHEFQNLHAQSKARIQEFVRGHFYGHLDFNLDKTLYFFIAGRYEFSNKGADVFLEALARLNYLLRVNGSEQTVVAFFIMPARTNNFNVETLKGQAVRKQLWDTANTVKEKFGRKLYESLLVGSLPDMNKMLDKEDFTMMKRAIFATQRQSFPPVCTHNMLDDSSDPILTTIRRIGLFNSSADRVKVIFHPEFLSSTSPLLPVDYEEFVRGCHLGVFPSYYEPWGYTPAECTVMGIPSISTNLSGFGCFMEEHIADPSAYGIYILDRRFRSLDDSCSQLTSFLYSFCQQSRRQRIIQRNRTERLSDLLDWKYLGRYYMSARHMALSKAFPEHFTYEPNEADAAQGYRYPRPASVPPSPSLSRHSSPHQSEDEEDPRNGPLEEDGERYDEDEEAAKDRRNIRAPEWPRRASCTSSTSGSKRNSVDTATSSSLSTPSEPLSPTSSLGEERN
T1 sequence (P46976 1-350 partner): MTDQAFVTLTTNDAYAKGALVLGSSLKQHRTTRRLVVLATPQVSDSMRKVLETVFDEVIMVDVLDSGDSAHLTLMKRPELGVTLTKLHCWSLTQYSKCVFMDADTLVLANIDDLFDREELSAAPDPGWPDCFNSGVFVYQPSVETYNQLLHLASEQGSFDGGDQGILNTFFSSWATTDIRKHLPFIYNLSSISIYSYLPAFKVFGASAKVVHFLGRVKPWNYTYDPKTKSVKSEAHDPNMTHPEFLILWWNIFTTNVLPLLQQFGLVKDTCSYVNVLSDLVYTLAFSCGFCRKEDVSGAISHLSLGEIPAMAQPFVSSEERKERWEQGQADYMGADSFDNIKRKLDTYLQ
Experiment: GYS1 coupled enzyme assay (PK/LDH, NADH absorbance at 340 nm)
Assay type: biochemical
Conditions: geometric mean of at least 2 assay runs on separate days; hGYS1/GN1 50 nM, Glucose-6-Phosphate 1 mM, UDP-Glucose 0.8 mM
Text: The GYS1 coupled enzyme assay is a kinetic biochemical assay that indirectly quantifies the rate of glycogen synthesis by coupling the conversion of GYS1 substrate UDP-glucose into UDP with downstream enzymatic reactions. UDP is released from UDP-glucose as glucose monomers are linked into the growing glycogen strand by GYS1. The coupled assay then proceeds with pyruvate kinase utilizing UDP and phospho(enol)pyruvate (PEP) to form pyruvate. Lactate dehydrogenase then converts pyruvate and NADH into lactate and NAD+. Oxidation of NADH to NAD+ can be measured continuously with a plate reader by quantifying the decrease in NADH absorbance at 340 nm over time.
Compounds that inhibit the hGYS1 enzyme and, subsequently, the downstream conversion of NADH to NAD+, were tested using assay ready plates (black, clear bottom 384 well plates) in a final DMSO reaction volume of 2.5% DMSO. The Assay Buffer contained 50 mM Tris pH 7.5, 2 mM MgCl2, and 100 mM KCl. Fresh stocks of BSA at a final concentration of 0.02% and TCEP at 1 mM were added before splitting buffer into hGYS1 buffer and substrate buffer. To the hGYS1 buffer, rabbit liver glycogen was added at a final concentration of 0.2% glycogen. Glucose-6-Phosphate was added at 1 mM, recombinant hGYS1/GN1 protein was added at 50 nM to the substrate buffer, phosphoenolpyruvate (PEP) was added at 2 mM, UDP-Glucose was added at 0.8 mM, NADH) was added at 0.6 mM, and Pyruvate Kinase/Lactate Dehydrogenase was added at 20 units/mL. The reaction was initiated by mixing hGYS1 buffer and substrate buffer at a 1:1 ratio. Both buffers were plated using a liquid dispensing device with hGYS1 buffer plated first followed by the substrate buffer. Plates were spun briefly to eliminate air bubbles and are immediately read in continuous mode at an absorbance of 340 nm, for 10 time points in one-minute increments, for a total of 10 minutes. The slope from these 10 time points was normalized to the positive and negative control wells. The duplicate % inhibition values are then averaged and fit to a Hill equation for dose response according to the Levenberg-Marquardt algorithm with the Hill equation maximum set to 100 and the minimum set to 0.
The results are shown in Table 2 below, which reports the IC50 of each compound. Unless otherwise specified, IC50 values are reported as the geometric mean of at least 2 assay runs on separate days. Each run represents the average of a technical replicate, where each compound was assayed twice in the same plate. As shown in the table below, the compounds of the present invention are potent inhibitors of human GYS1. A superscript “#” symbol in Table 2 indicates results from a single assay run.
Note that, in Table 2, the compounds are referred to by the corresponding Compound No. in Table 1, which is also referred to in the synthetic examples.

| SMILES | IC50 |
| --- | --- |
| O=C(N[C@@H](c1ccccc1)c1ccc(C2CC2)c(F)n1)[C@@H]1C[C@@H](F)CN1C(=O)COCCOCC(=O)N1C[C@H](F)C[C@H]1C(=O)N[C@@H](c1ccccc1)c1ccc(C2CC2)c(F)n1 [Compound 4, (2S,2′S,4R,4′R)-1,1′-(2,2′-(ethane-1,2-diylbis(oxy))bis(acetyl))bis(N-((S)-(5-cyclopropyl-6-fluoropyridin-2-yl)(phenyl)methyl)-4-fluoropyrrolidine-2-carboxamide)] | 8910 nM |
| O=C(COCCOCCOCCOCCOCCOCCOCCOCCOCCOCCOCC(=O)N[C@@H](c1ccccc1)c1ccc(C2CC2)c(F)n1)N[C@@H](c1ccccc1)c1ccc(C2CC2)c(F)n1 [Compound 6, N^1,N^35-bis((S)-(5-cyclopropyl-6-fluoropyridin-2-yl)(phenyl)methyl)-3,6,9,12,15,18,21,24,27,30,33-undecaoxapentatriacontanediamide] | 7500 nM |
| O=C(COCCOCCOCCOCCOCCOCCOCCOCCOCCOCCOCCOCC(=O)N[C@@H](c1ccccc1)c1ccc(C2CC2)c(F)n1)N[C@@H](c1ccccc1)c1ccc(C2CC2)c(F)n1 [Compound 3, N^1,N^38-bis((S)-(5-cyclopropyl-6-fluoropyridin-2-yl)(phenyl)methyl)-3,6,9,12,15,18,21,24,27,30,33,36-dodecaoxaoctatriacontanediamide] | 5710 nM |
| O=C(N[C@@H](c1ccccc1)c1ccc(C2CC2)c(F)n1)[C@@H]1C[C@@H](F)CN1C(=O)COCCOCCOCC(=O)N1C[C@H](F)C[C@H]1C(=O)N[C@@H](c1ccccc1)c1ccc(C2CC2)c(F)n1 [Compound 12, (2S,2′S,4R,4′R)-1,1′-(2,2′-((oxybis(ethane-2,1-diyl))bis(oxy))bis(acetyl))bis(N-((S)-(5-cyclopropyl-6-fluoropyridin-2-yl)(phenyl)methyl)-4-fluoropyrrolidine-2-carboxamide)] | 82.1 nM |
| Cc1cn(CC(=O)N2C[C@H](F)C[C@H]2C(=O)N[C@@H](c2ccccc2)c2ccc(C3CC3)c(F)n2)c(=O)nc1OCCOc1nc(=O)n(CC(=O)N2C[C@H](F)C[C@H]2C(=O)N[C@@H](c2ccccc2)c2ccc(C3CC3)c(F)n2)cc1C [Compound 16, (2S,2′S,4R,4′R)-1,1′-(2,2′-((ethane-1,2-diylbis(oxy))bis(5-methyl-2-oxopyrimidine-4,1(2H)-diyl))bis(acetyl))bis(N-((S)-(5-cyclopropyl-6-fluoropyridin-2-yl)(phenyl)methyl)-4-fluoropyrrolidine-2-carboxamide)] | 23 nM |

These reach a lower IC50. Values come first.

| IC50 | SMILES |
| --- | --- |
| 20.1 nM | O=C(N[C@@H](c1ccccc1)c1ccc(C2CC2)c(F)n1)[C@@H]1C[C@@H](F)CN1C(=O)Cn1cc(OCCOc2cn(CC(=O)N3C[C@H](F)C[C@H]3C(=O)N[C@@H](c3ccccc3)c3ccc(C4CC4)c(F)n3)nn2)nn1 [Compound 9, (2S,2′S,4R,4′R)-1,1′-(2,2′-((ethane-1,2-diylbis(oxy))bis(1H-1,2,3-triazole-4,1-diyl))bis(acetyl))bis(N-((S)-(5-cyclopropyl-6-fluoropyridin-2-yl)(phenyl)methyl)-4-fluoropyrrolidine-2-carboxamide)] |
| 14.6 nM | O=C(N[C@@H](c1ccccc1)c1ccc(C2CC2)c(F)n1)[C@@H]1C[C@@H](F)CN1C(=O)COCCOCCOCCOCC(=O)N1C[C@H](F)C[C@H]1C(=O)N[C@@H](c1ccccc1)c1ccc(C2CC2)c(F)n1 [Compound 11, (2S,2′S,4R,4′R)-1,1′-(3,6,9,12-tetraoxatetradecanedioyl)bis(N-((S)-(5-cyclopropyl-6-fluoropyridin-2-yl)(phenyl)methyl)-4-fluoropyrrolidine-2-carboxamide)] |
| 14.4 nM | O=C(N[C@@H](c1ccccc1)c1ccc(C2CC2)c(F)n1)[C@@H]1C[C@@H](F)CN1C(=O)COCCOCCOCCOCCOCC(=O)N1C[C@H](F)C[C@H]1C(=O)N[C@@H](c1ccccc1)c1ccc(C2CC2)c(F)n1 [Compound 10, (2S,2′S,4R,4′R)-1,1′-(3,6,9,12,15-pentaoxaheptadecanedioyl)bis(N-((S)-(5-cyclopropyl-6-fluoropyridin-2-yl)(phenyl)methyl)-4-fluoropyrrolidine-2-carboxamide)] |
| 11.2 nM | O=C(N[C@@H](c1ccccc1)c1ccc(C2CC2)c(F)n1)[C@@H]1C[C@@H](F)CN1C(=O)Cn1cc(COCCOCc2cn(CC(=O)N3C[C@H](F)C[C@H]3C(=O)N[C@@H](c3ccccc3)c3ccc(C4CC4)c(F)n3)nn2)nn1 [Compound 7, (2S,2′S,4R,4′R)-1,1′-(2,2′-(((ethane-1,2-diylbis(oxy))bis(methylene))bis(1H-1,2,3-triazole-4,1-diyl))bis(acetyl))bis(N-((S)-(5-cyclopropyl-6-fluoropyridin-2-yl)(phenyl)methyl)-4-fluoropyrrolidine-2-carboxamide)] |
| 10.8 nM | O=C(N[C@@H](c1ccccc1)c1ccc(C2CC2)c(F)n1)[C@@H]1C[C@@H](F)CN1C(=O)Cn1cc(OCCOCCOc2cn(CC(=O)N3C[C@H](F)C[C@H]3C(=O)N[C@@H](c3ccccc3)c3ccc(C4CC4)c(F)n3)nn2)nn1 [Compound 1, (2S,2′S,4R,4′R)-1,1′-(2,2′-(((oxybis(ethane-2,1-diyl))bis(oxy))bis(1H-1,2,3-triazole-4,1-diyl))bis(acetyl))bis(N-((S)-(5-cyclopropyl-6-fluoropyridin-2-yl)(phenyl)methyl)-4-fluoropyrrolidine-2-carboxamide)] |
| 7.5 nM | CN(CCOCCOCCOCC(=O)N1C[C@H](F)C[C@H]1C(=O)N[C@@H](c1ccccc1)c1ccc(C2CC2)c(F)n1)CCOCCOCC(=O)N1C[C@H](F)C[C@H]1C(=O)N[C@@H](c1ccccc1)c1ccc(C2CC2)c(F)n1 [Compound 17, (2S,2′S,4R,4′R)-1,1′-(9-methyl-3,6,12,15,18-pentaoxa-9-azaicosanedioyl)bis(N-((S)-(5-cyclopropyl-6-fluoropyridin-2-yl)(phenyl)methyl)-4-fluoropyrrolidine-2-carboxamide)] |
| 5.6 nM | O=C(N[C@@H](c1ccccc1)c1ccc(C2CC2)c(F)n1)[C@@H]1C[C@@H](F)CN1C(=O)COCCOCCOCCOCCOCCOCCOCC(=O)N1C[C@H](F)C[C@H]1C(=O)N[C@@H](c1ccccc1)c1ccc(C2CC2)c(F)n1 [Compound 2, (2S,2′S,4R,4′R)-1,1′-(3,6,9,12,15,18,21-heptaoxatricosanedioyl)bis(N-((S)-(5-cyclopropyl-6-fluoropyridin-2-yl)(phenyl)methyl)-4-fluoropyrrolidine-2-carboxamide)] |
| 5.4 nM | O=C(N[C@@H](c1ccccc1)c1ccc(C2CC2)c(F)n1)[C@@H]1C[C@@H](F)CN1C(=O)COCCOCCOCCOCCOCCOCC(=O)N1C[C@H](F)C[C@H]1C(=O)N[C@@H](c1ccccc1)c1ccc(C2CC2)c(F)n1 [Compound 5, (2S,2′S,4R,4′R)-1,1′-(3,6,9,12,15,18-hexaoxaicosanedioyl)bis(N-((S)-(5-cyclopropyl-6-fluoropyridin-2-yl)(phenyl)methyl)-4-fluoropyrrolidine-2-carboxamide)] |
